According to patent publication US20210154188A1, “ALK5 INHIBITORS, CONJUGATES, AND USES THEREOF” (SILVERBACK THERAPEUTICS, INC., priority 2018, published 2021):

Experiments:
ALK5 = molecular target: T1, ALK5 (Homo sapiens, UniProt P36897); assay: ALK5 enzyme inhibition assay (33P-ATP filter-binding, Reaction Biology Corp); format: biochemical; conditions: casein substrate 1 mg/mL, 10 uM ATP
T1 construct: purchased Reaction Biology Corp (Malvern, PA)
T1 sequence (P36897 34-503): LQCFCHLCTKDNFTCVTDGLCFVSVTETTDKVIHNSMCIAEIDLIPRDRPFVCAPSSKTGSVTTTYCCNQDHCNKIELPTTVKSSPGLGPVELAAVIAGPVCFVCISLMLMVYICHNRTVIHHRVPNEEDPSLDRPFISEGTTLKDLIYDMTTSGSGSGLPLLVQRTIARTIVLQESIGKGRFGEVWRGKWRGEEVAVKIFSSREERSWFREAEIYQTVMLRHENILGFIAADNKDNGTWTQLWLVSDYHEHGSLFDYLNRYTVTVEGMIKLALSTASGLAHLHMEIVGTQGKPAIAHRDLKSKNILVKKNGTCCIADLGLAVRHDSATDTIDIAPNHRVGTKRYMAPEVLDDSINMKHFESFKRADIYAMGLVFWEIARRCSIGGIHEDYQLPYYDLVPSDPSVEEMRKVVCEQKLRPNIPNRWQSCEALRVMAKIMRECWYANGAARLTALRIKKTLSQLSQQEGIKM
Method: ALK5 enzyme inhibition assays were performed by Reaction Biology Corp (Malvern, PA). 1 mg/mL of peptide subtrate (casein) and 10 uM ATP were prepared in a mixture of fresh reaction buffer. The kinase was delivered into the substrate solution which was gently mixed. Compounds in 100% DMSO were added to the kinase reaction mixture by Acoustic technology (Echo550; nanoliter range) and the mixture was incubated for 20 min at room temperature. ^33P-ATP (Specific activity 10 uCi/uL) was added into the reaction mixture to initiate the reaction and the reaction mixture was incubated for 2 hours at room temperature. Radioactivity was detected by filter-binding method and kinase activity data were expressed as the percent remaining kinase activity in test samples compared to vehicle (dimethyl sulfoxide) reactions. IC50 values and curve fits were obtained using Prism (GraphPad Software).

[1] = system: TGFb/SMAD Signaling Pathway SBE reporter cell line; assay: TGFb reporter assay (luciferase); format: cell-based; conditions: 5-6 h preincubation, then TGFb, 18 h, luminescence
Method: TGFb/SMAD Signaling Pathway SBE reporter cell line was obtained from BPS Bioscience. Cells were passed/expanded/stored in liquid nitrogen per supplier's instruction with the exception that growth media was changed to DMEM-C with Geneticin (DMEM supplemented with 10% fetal bovine serum, 1× NEAA, 1 mM Pyruvate, 2 mM glutamine, 50 μg/mL penicillin, 50 U/mL streptomycin and 400 ug/mL of Geneticin). The assay media was MEM supplemented with 0.5% fetal bovine serum, 1× NEAA, 1 mM Pyruvate, 50 μg/mL penicillin and 50 U/mL streptomycin.
Reporter cells were harvested from the tissue culture flasks by incubation in small quantity of Versene at room temperature for three to five minutes after the media in the flask was removed and cells rinsed with PBS. Cells were counted and diluted in the assay media at ˜0.8×10^6 cells/mL then 50 uL/well were added to 96-well assay plate. Test samples (at desired concentrations diluted in assay media) were added to assay plate containing the 50 uL/well of cells (or media only), 50 uL per well, and incubated for 5-6 hours at 37° C. in a 5% CO2 humidified incubator. After that time, 15 uL of TGFb diluted to 12.5 ng/mL in the assay media was added to the plate. Controls included TGFb titration (from 25 to 0 ng/mL) without inhibitors, and media only (without cells, inhibitor or TGFb). Plates were incubated at 37° C. in a 5% CO2 humidified incubator for 18 h. Luciferase substrate solution was subsequently added at 75 uL per well, incubated in dark with shaking at room temperature for 10 min, and luminescence was measured using a luminometer.

SMILES	IC50 (ALK5) [nM]	IC50 [1] [nM]
Cc1cccc(-c2nc(CNCc3ccc4c(c3)OCO4)[nH]c2-c2ccc3ncnn3c2)n1 [Compound 1.41, 1-(5-([1,2,4]triazolo[1,5-a]pyridin-6-yl)-4-(6-methylpyridin-2-yl)-1H-imidazol-2-yl)-N-(benzo[d][1,3]dioxol-5-ylmethyl)methanamine]	100 to 1000	100 to 1000
Cc1cccc(-c2nc(CNC3CC3)[nH]c2-c2ccc3ncnn3c2)n1 [Compound 1.7, N-((5-([1,2,4]triazolo[1,5-a]pyridin-6-yl)-4-(6-methylpyridin-2-yl)-1H-imidazol-2-yl)methyl)-cyclopropanamine]	1000 to 10000	100 to 1000
